{"source": "patent EP0435915B1", "about": "“COMPOSITIONS FOR THE TREATMENT OF LEISHMANIASIS” (priority 1988, dated 1990)", "origin": "cited, not measured here", "test_system": "leishmaniasis lesions", "details": "reported by GB-A-2117237; result in words"}
{"smiles": "NC[C@@H]1O[C@H](O[C@H]2[C@@H](O)[C@H](O[C@@H]3[C@@H](O)[C@H](N)C[C@H](N)[C@H]3O[C@H]3O[C@H](CO)[C@@H](O)[C@H](O)[C@H]3N)O[C@@H]2CO)[C@H](N)[C@@H](O)[C@@H]1O", "note": "[paromomycin, 0-2,6-diamino-2,6-dideoxy-β-L-idopyranosyl-(1→3)-0-β-D-ribofuranosyl-(1→5)-0-[2-amino-2-deoxy-α-D-glucopyranosyl-(1→4)]-2-deoxystreptamine]", "values": [{"measurement": "effect when applied topically to leishmaniasis lesions", "value": "ineffective"}]}
